Ki and IC50 data for 23 compounds are collected here from US11142525B2 (Pfizer Inc., priority 2018, dated 2021).

Where a name gives a salt, the structure may show the parent alone.

Test [1] has as its target human full-length recombinant HPK1 (Homo sapiens (Human), UniProt Q92918). The experiment in a line: HPK1 biochemical enzyme assay, microfluidic mobility shift assay (MSA). The following applies: mobility shift assay; 75 μM ATP; Morrison equation, tight-binding competitive inhibition; read-out: HPK1 Enzyme Assay_Ki.
Test [2] has as its system phospho-SLP-76 (Ser376) in Jurkat cells. Put plainly: Phospho-SLP-76 (Ser376) Homogeneous Time Resolved Fluorescence (HTRF) assay in Jurkat cells. In kind it is cell-based. The conditions noted are these: Homo sapiens, 30 min pre-treatment, anti-CD3 stimulation 15 min, HTRF, read-out: SLP76 Assay_IC50. As to the method: Jurkat cells were seeded at 90,000 cells/well in 90 uL of RPMI1640 growth medium containing 10% FBS and incubated at 37° C. with 5% CO2 overnight. The following day, compounds were serially diluted from a 10 mM top dose for an 11-point 3 fold dilution curve in DMSO. Compounds were intermediately diluted 1:100 into growth media prior to diluting 1:10 on cells for final concentration 10 μM to 0.1 nM in 0.1% DMSO. After 30 minutes pre-treatment with compounds, the cells were stimulated using 200 μg/mL of F(ab)2 complexed anti-CD3 (clone UCTH1) for 15 min at 37° C. with 5% CO2. Stimulation was stopped with ice cold PBS and cells were harvested by centrifugation before lysis in Cisbio lysis buffer (Cisbio, Bedford, Mass.). Lysates were transferred to white, low-volume plates containing anti-phospho-SLP-76-Cryptate plus anti-phospho-SLP-76-d2 HTRF antibodies and incubated overnight at room temperature protected from light according to the manufacturer's protocol (Cisbio, Bedford, Mass.). HTRF was measured on a Perkin Elmer Envision and IC50 values were calculated by concentration-response curve fitting utilizing four-parameter nonlinear regression analyses.

Chain of human full-length recombinant HPK1 (Q92918 whole entry): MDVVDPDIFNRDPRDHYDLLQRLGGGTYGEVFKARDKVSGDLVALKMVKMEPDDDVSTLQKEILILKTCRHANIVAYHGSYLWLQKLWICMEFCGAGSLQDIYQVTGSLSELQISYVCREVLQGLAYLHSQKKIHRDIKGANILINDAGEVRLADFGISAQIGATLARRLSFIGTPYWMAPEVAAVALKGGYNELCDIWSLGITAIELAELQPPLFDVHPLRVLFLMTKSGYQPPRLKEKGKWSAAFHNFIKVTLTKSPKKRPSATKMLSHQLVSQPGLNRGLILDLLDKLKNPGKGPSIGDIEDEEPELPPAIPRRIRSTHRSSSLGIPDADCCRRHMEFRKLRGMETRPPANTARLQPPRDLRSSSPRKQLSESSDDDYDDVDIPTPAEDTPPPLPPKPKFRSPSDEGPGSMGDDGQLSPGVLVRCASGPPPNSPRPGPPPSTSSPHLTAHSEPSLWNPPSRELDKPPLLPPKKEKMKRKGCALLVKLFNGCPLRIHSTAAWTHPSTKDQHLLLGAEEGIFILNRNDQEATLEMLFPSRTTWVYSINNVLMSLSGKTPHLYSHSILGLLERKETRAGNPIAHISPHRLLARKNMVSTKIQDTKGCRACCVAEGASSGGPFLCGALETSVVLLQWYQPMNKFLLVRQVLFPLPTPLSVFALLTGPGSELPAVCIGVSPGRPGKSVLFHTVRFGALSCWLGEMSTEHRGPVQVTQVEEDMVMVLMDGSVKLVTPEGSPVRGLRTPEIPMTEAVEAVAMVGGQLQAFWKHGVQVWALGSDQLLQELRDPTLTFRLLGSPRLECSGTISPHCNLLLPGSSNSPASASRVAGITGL

In the case of `CNCc1nc(N(C)C)cc2c1CN(c1cccc(N3C(=O)OC[C@@H]3C(F)F)n1)C2=O` [Example 37, 2-{6-[(4R)-4-(difluoromethyl)-2-oxo-1,3-oxazolidin-3-yl]pyridin-2-yl}-6-(dimethylamino)-4-[(methylamino)methyl]-2,3-dihydro-1H-pyrrolo[3,4-c]pyridin-1-one], the Ki in test [1] turned out to be 0.0015 µM. Further, in test [2], the IC50 stood at 0.487 µM.
As for `CCN(CC)c1cc2c(c(CN)n1)CN(c1cccc(-c3nncn3C(C)C)n1)C2=O` [Example 38, 4-(aminomethyl)-6-(diethylamino)-2-{6-[4-(propan-2-yl)-4H-1,2,4-triazol-3-yl]pyridin-2-yl}-2,3-dihydro-1H-pyrrolo[3,4-c]pyridin-1-one], in test [1], the Ki was determined as 0.00038 µM. Moreover, the IC50 in test [2] is 0.147 µM.
Regarding `CNCc1nc(C(C)(C)C)cc2c1CN(c1cccc(N3C(=O)OC[C@@H]3C)n1)C2=O` [Example 39, 6-tert-butyl-4-[(methylamino)methyl]-2-{6-[(4S)-4-methyl-2-oxo-1,3-oxazolidin-3-yl]pyridin-2-yl}-2,3-dihydro-1H-pyrrolo[3,4-c]pyridin-1-one], the Ki in test [1] came to 0.0018 µM. In test [2], the IC50 turned out to be 0.672 µM.
Turning to `CNCc1nc(C2CC2)cc2c1CN(c1cccc(N3C(=O)OC[C@@H]3C)n1)C2=O` [Example 40, 6-cyclopropyl-4-[(methylamino)methyl]-2-{6-[(4S)-4-methyl-2-oxo-1,3-oxazolidin-3-yl]pyridin-2-yl}-2,3-dihydro-1H-pyrrolo[3,4-c]pyridin-1-one], the Ki in test [1] is 0.00081 µM. Further, in test [2], the IC50 came out at 0.137 µM.
As to `CC(C)c1cc2c(c(CN)n1)CN(c1cccc(N3C(=O)OC[C@@H]3C)n1)C2=O` [Example 41, 4-(aminomethyl)-2-{6-[(4S)-4-methyl-2-oxo-1,3-oxazolidin-3-yl]pyridin-2-yl}-6-(propan-2-yl)-2,3-dihydro-1H-pyrrolo[3,4-c]pyridin-1-one], the Ki in test [1] stood at 0.0046 µM. Also, the IC50 in test [2] is 0.315 µM.
For `C[C@H]1COC(=O)N1c1cccc(N2Cc3c(cc(C4(C)CC4)nc3CN)C2=O)n1` [Example 42, 4-(aminomethyl)-6-(1-methylcyclopropyl)-2-{6-[(4S)-4-methyl-2-oxo-1,3-oxazolidin-3-yl]pyridin-2-yl}-2,3-dihydro-1H-pyrrolo[3,4-c]pyridin-1-one], the Ki in test [1] was found to be 0.00033 µM. Further, the IC50 in test [2] amounted to 0.192 µM.
For `C[C@@H]1C[C@@H](C)N1c1cc2c(c(CN)n1)CN(c1cccc(N3C(=O)OC[C@@H]3C)n1)C2=O` [Example 43, 4-(aminomethyl)-6-[(2R,4R)-2,4-dimethylazetidin-1-yl]-2-{6-[(4S)-4-methyl-2-oxo-1,3-oxazolidin-3-yl]pyridin-2-yl}-2,3-dihydro-1H-pyrrolo[3,4-c]pyridin-1-one] the same measures were 0.00192 µM and 0.561 µM.
In the case of `C[C@H]1COC(=O)N1c1cccc(N2Cc3c(cc(N4CCC4)nc3CN)C2=O)n1` [Example 44, 4-(aminomethyl)-6-(azetidin-1-yl)-2-{6-[(4S)-4-methyl-2-oxo-1,3-oxazolidin-3-yl]pyridin-2-yl}-2,3-dihydro-1H-pyrrolo[3,4-c]pyridin-1-one], the Ki in test [1] was 0.0004 µM. For the same compound, the IC50 in test [2] turned out to be 0.244 µM.
With `CNCc1nc(N(C)C)cc2c1CN(c1cccc(N3C(=O)OC[C@@H]3CF)n1)C2=O` [Example 45, 6-(dimethylamino)-2-{6-[(4R)-4-(fluoromethyl)-2-oxo-1,3-oxazolidin-3-yl]pyridin-2-yl}-4-[(methylamino)methyl]-2,3-dihydro-1H-pyrrolo[3,4-c]pyridin-1-one], the Ki in test [1] amounted to 0.00017 µM. For the same compound, the IC50 in test [2] came out at 0.173 µM.
For the compound `CCCn1cnnc1-c1cccc(N2Cc3c(cc(N(C)C)nc3CNC)C2=O)n1` [Example 46, 6-(dimethylamino)-4-[(methylamino)methyl]-2-[6-(4-propyl-4H-1,2,4-triazol-3-yl)pyridin-2-yl]-2,3-dihydro-1H-pyrrolo[3,4-c]pyridin-1-one], the Ki in test [1] came out at 0.00014 µM. In test [2], the IC50 was found to be 0.094 µM.
Take `CNCc1nc(C)cc2c1CN(c1cccc(-c3nncn3C(C)C)n1)C2=O` [Example 47, 6-methyl-4-[(methylamino)methyl]-2-{6-[4-(propan-2-yl)-4H-1,2,4-triazol-3-yl]pyridin-2-yl}-2,3-dihydro-1H-pyrrolo[3,4-c]pyridin-1-one]: in test [1], the Ki was 0.0071 µM. For the same compound, the IC50 in test [2] is 1.52 µM.
As to `CCN(C)c1cc2c(c(CNC)n1)CN(c1cccc(-c3nncn3C(C)C)n1)C2=O` [Example 48, 6-[ethyl(methyl)amino]-4-[(methylamino)methyl]-2-{6-[4-(propan-2-yl)-4H-1,2,4-triazol-3-yl]pyridin-2-yl}-2,3-dihydro-1H-pyrrolo[3,4-c]pyridin-1-one], the Ki in test [1] came out at 0.00014 µM. The IC50 in test [2] amounted to 0.094 µM.
With `CNCc1nc(C2(C)CC2)cc2c1CN(c1cccc(N3C(=O)OC[C@@H]3C)n1)C2=O` [Example 49, 4-[(methylamino)methyl]-6-(1-methylcyclopropyl)-2-{6-[(4S)-4-methyl-2-oxo-1,3-oxazolidin-3-yl]pyridin-2-yl}-2,3-dihydro-1H-pyrrolo[3,4-c]pyridin-1-one], in test [1], the Ki was found to be 0.00146 µM. The IC50 in test [2] was found to be 0.73 µM.
On the same counts, the results for `CNCc1nc(N)cc2c1CN(c1cccc(-c3nncn3C(C)C)n1)C2=O` [Example 50, 6-amino-4-[(methylamino)methyl]-2-{6-[4-(propan-2-yl)-4H-1,2,4-triazol-3-yl]pyridin-2-yl}-2,3-dihydro-1H-pyrrolo[3,4-c]pyridin-1-one] are 0.00014 µM and 0.094 µM.
Regarding `CNCc1nc(N2[C@H](C)C[C@@H]2C)cc2c1CN(c1cccc(-c3nncn3C(C)C)n1)C2=O` [Example 53, 6-[(2R,4S)-2,4-dimethylazetidin-1-yl]-4-[(methylamino)methyl]-2-{6-[4-(propan-2-yl)-4H-1,2,4-triazol-3-yl]pyridin-2-yl}-2,3-dihydro-1H-pyrrolo[3,4-c]pyridin-1-one], the Ki in test [1] worked out at 0.00061 µM. The IC50 in test [2] was found to be 0.489 µM.
On to `CCCn1cnnc1-c1cccc(N2Cc3c(cc(N(C)CC)nc3CN)C2=O)n1` [Example 56, 4-(aminomethyl)-6-[ethyl(methyl)amino]-2-[6-(4-propyl-4H-1,2,4-triazol-3-yl)pyridin-2-yl]-2,3-dihydro-1H-pyrrolo[3,4-c]pyridin-1-one hydrochloride], for which, in test [1], the Ki came to 0.00034 µM. For the same compound, the IC50 in test [2] came out at 0.139 µM.
As to `CCC(CC)n1cnnc1-c1cccc(N2Cc3c(cc(C4(C)CC4)nc3CNC)C2=O)n1` [Example 57, 4-[(methylamino)methyl]-6-(1-methylcyclopropyl)-2-{6-[4-(pentan-3-yl)-4H-1,2,4-triazol-3-yl]pyridin-2-yl}-2,3-dihydro-1H-pyrrolo[3,4-c]pyridin-1-one], in test [1], the Ki came out at 0.00021 µM. The IC50 in test [2] was 0.074 µM.
In the case of `CC[C@H](C)n1cnnc1-c1cccc(N2Cc3c(cc(C4(C)CC4)nc3CNC)C2=O)n1` [Example 58, 2-(6-{4-[(2S)-butan-2-yl]-4H-1,2,4-triazol-3-yl}pyridin-2-yl)-4-[(methylamino)methyl]-6-(1-methylcyclopropyl)-2,3-dihydro-1H-pyrrolo[3,4-c]pyridin-1-one], in test [1], the Ki is 0.00016 µM. Besides, the IC50 in test [2] amounted to 0.103 µM.
As for `CCCn1cnnc1-c1cccc(N2Cc3c(cc(N(C)CC)nc3CNC)C2=O)n1` [Example 59, 6-[ethyl(methyl)amino]-4-[(methylamino)methyl]-2-[6-(4-propyl-4H-1,2,4-triazol-3-yl)pyridin-2-yl]-2,3-dihydro-1H-pyrrolo[3,4-c]pyridin-1-one], the Ki in test [1] was 0.00019 µM. The IC50 in test [2] came out at 0.059 µM.
On the same counts, the results for `CCN(C)c1cc2c(c(CN)n1)CN(c1cccc(-c3nncn3CC)n1)C2=O` [Example 60, 4-(aminomethyl)-6-[ethyl(methyl)amino]-2-[6-(4-ethyl-4H-1,2,4-triazol-3-yl)pyridin-2-yl]-2,3-dihydro-1H-pyrrolo[3,4-c]pyridin-1-one] are 0.00017 µM and 0.07 µM.
Turning to `CCn1c(C)nnc1-c1cccc(N2Cc3c(cc(N4CCC[C@H]4C)nc3CN)C2=O)n1` [Example 61, 4-(aminomethyl)-2-[6-(4-ethyl-5-methyl-4H-1,2,4-triazol-3-yl)pyridin-2-yl]-6-[(2R)-2-methylpyrrolidin-1-yl]-2,3-dihydro-1H-pyrrolo[3,4-c]pyridin-1-one], in test [1], the Ki worked out at 0.00018 µM. Also, in test [2], the IC50 came to 0.088 µM.
For the compound `CNCc1nc(C2(C)CC2)cc2c1CN(c1cccc(-c3nncn3C3CCC3)n1)C2=O` [Example 65, 2-[6-(4-cyclobutyl-4H-1,2,4-triazol-3-yl)pyridin-2-yl]-4-[(methylamino)methyl]-6-(1-methylcyclopropyl)-2,3-dihydro-1H-pyrrolo[3,4-c]pyridin-1-one], the Ki in test [1] worked out at 0.00035 µM. Besides, the IC50 in test [2] is 0.114 µM.
In the case of `CCc1nnc(-c2cccc(N3Cc4c(cc(N5CCC[C@H]5C)nc4CNC)C3=O)n2)n1CC` [Example 66, 2-[6-(4,5-diethyl-4H-1,2,4-triazol-3-yl)pyridin-2-yl]-4-[(methylamino)methyl]-6-[(2R)-2-methylpyrrolidin-1-yl]-2,3-dihydro-1H-pyrrolo[3,4-c]pyridin-1-one], in test [1], the Ki was 0.00052 µM. Also, the IC50 in test [2] came to 0.108 µM.
